Reference: patent publication US7074785B2, “Δ1-pyrrolines used as pesticides” (Bayer Cropscience AG, priority 2001, dated 2006)
Like-named read-outs stand apart in the source and are kept apart here.

What was measured:
[1] = logP determination by HPLC (reversed-phase C18, EEC Directive 79/831 Annex V.A8); assay type: physicochemical
Method: The logP values stated in the above tables and Preparation Examples are determined in accordance with EEC Directive 79/831 Annex V.A8 by HPLC (High Performance Liquid Chromatography) using a reversed-phase column (C 18). Temperature: 43° C.
In the acidic range at pH 2.3 the determination takes place using 0.1% aqueous phosphoric acid and acetonitrile as the mobile phases; linear gradient from 10% acetonitrile to 90% acetonitrile. Corresponding results are marked in the tables by “a)”
In the neutral range at pH 7.5 the determination takes place using 0.01 molar aqueous phosphate buffer solution and acetonitrile as the mobile phases; linear gradient from 10% acetonitrile to 90% acetonitrile. Corresponding results are marked in the tables by “b)”
Calibration is carried out using unbranched alkan-2-ones (having 3 to 16 carbon atoms), with known logP values (the logP values determined on the basis of the retention times using linear interpolation between two successive alkanones).

[2] = system: army worm (Spodoptera frugiperda) caterpillars; test: Spodoptera frugiperda test; assay type: in vivo; conditions: in Brassica oleracea, 168 h
[3] = system: greenhouse red spider mite (Tetranychus urticae); test: Tetranychus test (OP resistant/dip treatment); assay type: in vivo; conditions: 168 h
Method: Tetranychus Test (OP Resistant/Dip Treatment)
Solvent: 7 parts by weight of dimethylformamide
After the desired period of time, the effect in % is determined.

[4] = system: larvae of the mustard beetle (Phaedon cochleariae); test: Phaedon larvae test; conditions: in Brassica oleracea, 168 h
[5] = HPLC, acidic range pH 2.3, 0.1% aqueous phosphoric acid/acetonitrile; marked a), read-out: log P (pH 2.3)
[6] = HPLC, neutral range pH 7.5, 0.01 molar phosphate buffer/acetonitrile; marked b), read-out: log P (pH 7.5)
[7] = reversed-phase C18 HPLC column; HPLC, acidic range pH 2.3, 0.1% aqueous phosphoric acid/acetonitrile; marked a), read-out: log P (pH 2.3)
[8] = reversed-phase C18 HPLC column; HPLC, neutral range pH 7.5, 0.01 molar phosphate buffer/acetonitrile; marked b), read-out: log P (pH 7.5)
[9] = 100 ppm, cabbage leaves dipped, read-out: Kill rate in % after 7 d
[10] = 100 ppm, bean plants dipped, Tetranychus urticae OP-resistant, read-out: Kill rate in % after 7 d
[11] = read-out: Kill rate in % after 7 d, 100 ppm, cabbage leaves dipped, Spodoptera frugiperda
[12] = read-out: Kill rate in % after 7 d, 100 ppm, cabbage leaves dipped, Phaedon cochleariae larvae
[13] = read-out: Kill rate in % after 7 d
[14] = read-out: Kill rate in % after 7 d, 100 ppm, bean plants dipped, Tetranychus urticae OP-resistant

| SMILES | chromatographic logP [1, 5] | chromatographic logP [1, 6] | pest or weed control at 100 ppm [2, 11] [%] | pest or weed control at 100 ppm [4, 12] [%] | pest or weed control at 100 ppm [3, 14] [%] | also measured |
| --- | --- | --- | --- | --- | --- | --- |
| CCCCOC(=O)N(C)c1ccc(-c2ccc(C3CCC(c4c(F)cccc4F)=N3)cc2)cc1 (stereo not shown) [Compound 3, n-butyl 4′-[5-(2,6-difluorophenyl)-3,4-dihydro-2H-pyrrol-2-yl]-1,1′-biphenyl-4-yl(methyl)carbamate] | 3.76 | 4.92 |  |  |  |  |
| O=C1OCCN1c1ccc(-c2ccc(C3CCC(c4c(F)cccc4F)=N3)cc2)cc1 (stereo not shown) [Compound 4, 3-{4′-[5-(2,6-difluorophenyl)-3,4-dihydro-2H -pyrrol-2-yl]-1,1′-biphenyl-4-yl}-1,3-oxazolidin-2-one] |  |  |  |  |  | chromatographic logP [1, 7]: 2.13; chromatographic logP [1, 8]: 3.28; pest or weed control at 100 ppm [2, 9]: ≥ 95%; pest or weed control at 100 ppm [3, 10]: ≥ 85% |
| O=C(Nc1ccc(-c2ccc(C3CCC(c4c(F)cccc4F)=N3)cc2)cc1)N1CCOCC1 (stereo not shown) [Compound 5, N-{4′-[5-(2,6-difluorophenyl)-3,4-dihydro-2H-pyrrol-2-yl]-1,1 ′-biphenyl-4-yl}-4-morpholinecarboxamide] |  |  |  |  |  | chromatographic logP [1, 7]: 1.87; chromatographic logP [1, 8]: 2.96; pest or weed control at 100 ppm [2, 9]: ≥ 95% |
| CCCCOC(=O)Nc1ccc(-c2ccc(C3CCC(c4c(F)cccc4F)=N3)cc2)cc1 (stereo not shown) [Compound 9] | 3.44 | 4.6 | ≥ 95 | 100 |  |  |
| O=C(Nc1ccc(-c2ccc(C3CCC(c4c(F)cccc4F)=N3)cc2)cc1)OC1CCCCC1 (stereo not shown) [Compound 10] | 3.88 | 1.68 | ≥ 95 | 100 |  |  |
| O=C(Nc1ccc(-c2ccc(C3CCC(c4c(F)cccc4F)=N3)cc2)cc1)N1CCCC1 (stereo not shown) [Compound 11] |  |  |  |  |  | chromatographic logP [1, 7]: 2.11; pest or weed control at 100 ppm [4, 13]: 100% |
| O=C(Nc1ccc(-c2ccc(C3CCC(c4c(F)cccc4F)=N3)cc2)cc1)N1CCCCC1 (stereo not shown) [Compound 12] |  |  |  |  |  | chromatographic logP [1, 7]: 2.53; chromatographic logP [1, 8]: 3.71; pest or weed control at 100 ppm [2, 9]: ≥ 95%; pest or weed control at 100 ppm [4, 13]: 100% |
| CCCCN(CC)C(=O)Nc1ccc(-c2ccc(C3CCC(c4c(F)cccc4F)=N3)cc2)cc1 (stereo not shown) [Compound 14] |  |  |  |  |  | chromatographic logP [1, 7]: 3.18; chromatographic logP [1, 8]: 4.36; pest or weed control at 100 ppm [2, 9]: ≥ 95% |
| CC(C)C(C)OC(=O)Nc1ccc(-c2ccc(C3CCC(c4c(F)cccc4F)=N3)cc2)cc1 (stereo not shown) [Compound 16] | 3.82 | 4.77 |  | ≥ 85 |  |  |
| CCCC(C)OC(=O)Nc1ccc(-c2ccc(C3CCC(c4c(F)cccc4F)=N3)cc2)cc1 (stereo not shown) [Compound 17] |  | 4.82 | ≥ 95 |  | ≥ 85 |  |
| CCCCCOC(=O)Nc1ccc(-c2ccc(C3CCC(c4c(F)cccc4F)=N3)cc2)cc1 (stereo not shown) [Compound 18] | 3.87 | 4.89 | ≥ 95 | ≥ 85 |  |  |
| CCCCCCOC(=O)Nc1ccc(-c2ccc(C3CCC(c4c(F)cccc4F)=N3)cc2)cc1 (stereo not shown) [Compound 19] | 4.46 | 5.26 |  | ≥ 85 | ≥ 85 |  |
| CC(OC(=O)Nc1ccc(-c2ccc(C3CCC(c4c(F)cccc4F)=N3)cc2)cc1)c1ccccc1 (stereo not shown) [Compound 20] | 3.63 |  | ≥ 95 | ≥ 85 |  |  |
| CC(C)CCOC(=O)Nc1ccc(-c2ccc(C3CCC(c4c(F)cccc4F)=N3)cc2)cc1 (stereo not shown) [Compound 21] | 3.72 |  | ≥ 95 | ≥ 85 |  |  |
| O=C(Nc1ccccc1)Nc1ccc(-c2ccc(C3CCC(c4c(F)cccc4F)=N3)cc2)cn1 (stereo not shown) [Compound 22] |  |  |  |  |  | chromatographic logP [1, 7]: 2.71; chromatographic logP [1, 8]: 3.98; pest or weed control at 100 ppm [2, 9]: ≥ 95%; pest or weed control at 100 ppm [3, 10]: ≥ 85% |
| CC(C)(C)COC(=O)Nc1ccc(-c2ccc(C3CCC(c4c(F)cccc4F)=N3)cc2)cc1 (stereo not shown) [Compound 23] | 3.76 |  | ≥ 95 |  | ≥ 85 |  |
| CCC(CC)OC(=O)Nc1ccc(-c2ccc(C3CCC(c4c(F)cccc4F)=N3)cc2)cc1 (stereo not shown) [Compound 24] | 3.76 |  |  | ≥ 85 | ≥ 85 |  |

| SMILES | chromatographic logP [1, 5] | chromatographic logP [1, 6] | pest or weed control at 100 ppm [2, 11] [%] | pest or weed control at 100 ppm [4, 12] [%] | pest or weed control at 100 ppm [3, 14] [%] | also measured |
| --- | --- | --- | --- | --- | --- | --- |
| O=C(Nc1ccc(-c2ccc(C3CCC(c4c(F)cccc4F)=N3)cc2)cc1)OCCc1ccccc1 (stereo not shown) [Compound 25] | 3.62 | 4.64 | ≥ 95 | ≥ 85 |  |  |
| O=C(Nc1ccc(-c2ccc(C3CCC(c4c(F)cccc4F)=N3)cc2)cc1)OCc1ccco1 (stereo not shown) [Compound 26] | 3.01 | 4.1 | ≥ 95 |  | ≥ 85 |  |
| CCCCC(CC)COCCOC(=O)Nc1ccc(-c2ccc(C3CCC(c4c(F)cccc4F)=N3)cc2)cc1 (stereo not shown) [Compound 28] | 5.13 | 5.97 | ≥ 95 |  | ≥ 85 |  |
| CCCN(CCC)CCOC(=O)Nc1ccc(-c2ccc(C3CCC(c4c(F)cccc4F)=N3)cc2)cc1 (stereo not shown) [Compound 29] | 1.74 | 5.52 |  | ≥ 85 | ≥ 85 |  |
| CN(C)CCOC(=O)Nc1ccc(-c2ccc(C3CCC(c4c(F)cccc4F)=N3)cc2)cc1 (stereo not shown) [Compound 30] | 1.37 |  | ≥ 95 |  | ≥ 85 |  |
| COCCOC(=O)Nc1ccc(-c2ccc(C3CCC(c4c(F)cccc4F)=N3)cc2)cc1 (stereo not shown) [Compound 31] | 2.24 | 3.45 | ≥ 95 |  |  |  |
| CCOCCOC(=O)Nc1ccc(-c2ccc(C3CCC(c4c(F)cccc4F)=N3)cc2)cc1 (stereo not shown) [Compound 32] | 2.52 | 3.75 |  | ≥ 85 | ≥ 85 |  |
| O=C(Nc1ccc(-c2ccc(C3CCC(c4c(F)cccc4F)=N3)cc2)cc1)OCCOCCOCCCC(F)(F)C(F)(F)F (stereo not shown) [Compound 34] | 3.7 | 4.73 | ≥ 95 |  | ≥ 85 |  |
| COC(=O)N(C)c1ccc(-c2ccc(C3CCC(c4c(F)cccc4F)=N3)cc2)cc1 (stereo not shown) [Compound 35] | 2.58 | 3.79 |  | ≥ 85 | ≥ 85 |  |
| CCOC(=O)N(C)c1ccc(-c2ccc(C3CCC(c4c(F)cccc4F)=N3)cc2)cc1 (stereo not shown) [Compound 37] | 2.92 | 4.16 | ≥ 95 | ≥ 85 |  |  |
| COC(=O)Nc1ccc(Br)cc1 [III-1, methyl 4-bromophenylcarbamate] | 2.27 |  |  |  |  |  |
| CCCOC(=O)Nc1ccc(Br)cc1 [III-2, n-propyl 4-bromophenylcarbamate] | 3.12 |  |  |  |  |  |
| CCCCOC(=O)N(C)c1ccc(Br)cc1 [III-3, n-butyl-4-bromophenyl(methyl)carbamate] | 3.88 |  |  |  |  |  |
| O=C1OCCN1c1ccc(Br)cc1 [III-4, 3-(4-bromophenyl)-1,3-oxazolidin-2-one] |  |  |  |  |  | chromatographic logP [1, 7]: 2.02 |
| O=C(Nc1ccc(Br)cc1)N1CCOCC1 [III-5, N-(4-bromophenyl)-4-morpholinecarboxamide] |  |  |  |  |  | chromatographic logP [1, 7]: 1.75 |
| Nc1ccc(-c2ccc(C3CCC(c4c(F)cccc4F)=N3)cc2)cc1 (stereo not shown) [VII-1, 4′-[5-(2,6-difluorophenyl)-3,4-dihydro-2H-pyrrol-2-yl]-1 ′-biphenyl-4-amine] |  |  |  |  |  | chromatographic logP [1, 7]: 1.25 |
